For one assay, the target named is T1, human CGT (Homo sapiens, UniProt Q16880).
T1 sequence (Q16880 21-541): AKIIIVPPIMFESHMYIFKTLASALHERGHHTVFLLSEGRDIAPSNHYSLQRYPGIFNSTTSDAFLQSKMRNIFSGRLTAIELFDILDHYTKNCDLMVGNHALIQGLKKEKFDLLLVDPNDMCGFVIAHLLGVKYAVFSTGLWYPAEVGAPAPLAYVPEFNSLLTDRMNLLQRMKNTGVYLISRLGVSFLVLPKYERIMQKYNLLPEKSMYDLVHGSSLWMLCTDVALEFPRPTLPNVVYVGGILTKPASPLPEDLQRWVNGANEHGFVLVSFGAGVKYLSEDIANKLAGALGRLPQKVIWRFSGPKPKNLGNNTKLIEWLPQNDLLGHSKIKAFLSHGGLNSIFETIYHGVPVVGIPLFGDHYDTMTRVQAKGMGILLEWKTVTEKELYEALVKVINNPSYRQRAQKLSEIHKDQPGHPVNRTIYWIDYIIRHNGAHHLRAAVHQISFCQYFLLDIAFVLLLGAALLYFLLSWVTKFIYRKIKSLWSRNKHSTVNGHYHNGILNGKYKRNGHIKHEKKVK
Nature of the assay: Assay 1: CGT Enzymatic Assay (RapidFire/MS/MS, 0.01% Tween 80). Format: biochemical. The conditions noted are these: Table 1, Compounds of Formula (I) and Formula (II); CGT enzymatic assay, C6-NBD-dihydro-galactosylceramide readout; read-out: IC50.
As usually defined, the IC50 is the concentration that inhibits the measured activity by half. For `N#Cc1ccc(N2C(=O)N(c3ccc(Cl)cc3)C3(CCC3)C2(O)c2cccc(C#N)c2)cc1` (stereo not drawn) [Compound 289, 3-(5-(4-chlorophenyl)-7-(4-cyanophenyl)-8-hydroxy-6-oxo-5,7-diazaspiro[3.4]octan-8-yl)benzonitrile], the IC50 is less than 1000 nM.

`COc1ccc(N2C(=O)N(c3ccc(OC)cc3)C(O)(c3cccc(C#N)c3)C2C(C)C)cc1` (stereo not drawn) [Example 330, 3-(4-hydroxy-5-isopropyl-1,3-bis(4-methoxyphenyl)-2-oxoimidazolidin-4-yl)benzonitrile]: the IC50 is less than 1000 nM.

For the molecule `Cc1ccc(N2C(=O)N(c3ccc(Cl)cc3)C(O)(c3cccc(C#N)c3)C23CCC3)cc1` (stereo not drawn) [Example 316, 3-(7-(4-chlorophenyl)-8-hydroxy-6-oxo-5-(p-tolyl)-5,7-diazaspiro[3.4]octan-8-yl)benzonitrile], the concentration for half-maximal inhibition (IC50) is less than 1000 nM.

`O=C1N(c2ccc(Cl)cc2)C2(CCC2)C(O)(c2cccc(OC(F)(F)F)c2)N1c1ccccc1` (stereo not drawn) [Example 332, 5-(4-chlorophenyl)-8-hydroxy-7-phenyl-8-(3-(trifluoromethoxy)phenyl)-5,7-diazaspiro[3.4]octan-6-one]: the IC50 is less than 1000 nM.

As to `COc1ccc(N2C(=O)N(c3ccc(OC)cc3)C(O)(c3cccc(OC(F)(F)F)c3)[C@@H]2C(C)C)cc1` (stereo partly drawn) [Example 329-1, (5S)-4-hydroxy-5-isopropyl-1,3-bis(4-methoxyphenyl)-4-(3-(trifluoromethoxy)phenyl)imidazolidin-2-one], the IC50 lay within 1000 to 10000 nM.

As for `N#Cc1ccc(N2C(=O)N(c3ccc(Cl)cc3)C3(COC3)C2(O)c2cccc(OC(F)(F)F)c2)cc1` (stereo not drawn) [Compound 274, 4-(5-(4-chlorophenyl)-8-hydroxy-6-oxo-8-(3-(trifluoromethoxy)phenyl)-2-oxa-5,7-diazaspiro[3.4]octan-7-yl)benzonitrile], the IC50 was less than 1000 nM.

Turning to `N#Cc1ccc(N2C(=O)N(c3ccc(Cl)cc3)C(O)(c3cccc(OC(F)(F)F)c3)C23COC3)cc1` (stereo not drawn) [Compound 276, 4-(7-(4-chlorophenyl)-8-hydroxy-6-oxo-8-(3-(trifluoromethoxy)phenyl)-2-oxa-5,7-diazaspiro[3.4]octan-5-yl)benzonitrile], the IC50 was less than 1000 nM.

Staying with this assay, now noted: Table 1, Compounds of Formula (I) and Formula (II); CGT enzymatic assay; read-out: IC50.
As to `CC1N(c2ccccc2)C(=O)N(c2ccc(Br)cc2)C1(O)c1cccc(OC(F)(F)F)c1` (stereo not drawn) [Example 229, 3-(4-bromophenyl)-4-hydroxy-5-methyl-1-phenyl-4-(3-(trifluoromethoxy)phenyl)imidazolidin-2-one], the concentration for half-maximal inhibition (IC50) is less than 1000 nM.

As for `O=C1N(c2ccc(Br)cc2)C(=O)C(O)(C(F)(F)F)N1c1ccc(Br)cc1` (stereo not drawn) [Example 216, 1,3-bis(4-bromophenyl)-5-hydroxy-5-(trifluoromethyl)imidazolidine-2,4-dione], the IC50 is greater than 50000 nM.

Turning to `CC[C@H]1N(c2ccc(Cl)cc2)C(=O)N(c2ccc(Cl)cc2)C1(O)c1cccc(C)c1` (stereo partly drawn) [Compound 75-2, (5R)-1,3-bis(4-chlorophenyl)-5-ethyl-4-hydroxy-4-(m-tolyl)imidazolidin-2-one], the IC50 was less than 1000 nM.

As for `O=C1N(c2ccc(Cl)cc2)C2(CC2)C(O)(c2cccc(OC(F)F)c2)N1c1ccc(Cl)cc1` (stereo not drawn) [Compound 236, 4,6-bis(4-chlorophenyl)-7-(3-(difluoromethoxy)phenyl)-7-hydroxy-4,6-diazaspiro[2.4]heptan-5-one], the IC50 was less than 1000 nM.

Turning to `O=C1N(c2cccc(Br)c2)C(=O)C(O)(c2ccccc2)N1c1cccc(Br)c1` (stereo not drawn) [Example 181, 1,3-bis(3-bromophenyl)-5-hydroxy-5-phenylimidazolidine-2,4-dione], the half-inhibitory concentration (IC50) was 50000 to 100000 nM.

In the case of `CN(C)CC1N(c2ccc(Cl)cc2)C(=O)N(c2ccc(Cl)cc2)C1(O)c1cccc(OC(F)(F)F)c1` (stereo not drawn) [Example 166, 1,3-bis(4-chlorophenyl)-5-((dimethylamino)methyl)-4-hydroxy-4-(3-(trifluoromethoxy)phenyl)imidazolidin-2-one], the IC50 was less than 1000 nM.

Take `O=C1N(c2ccc(Br)cc2)C(=O)C(O)(c2ccc(OC3CC3)c(Cl)c2)N1c1ccc(Br)cc1` (stereo not drawn) [Example 171, 1,3-bis(4-bromophenyl)-5-(3-chloro-4-cyclopropoxyphenyl)-5-hydroxyimidazolidine-2,4-dione]: the half-maximal inhibitory concentration (IC50) was 50000 to 100000 nM.

As for `C[C@@H]1N(c2ccc(Cl)cc2)C(=O)N(c2ccc(Cl)cc2)C1(O)c1cccc(C#N)c1` (single isomer, unassigned) [Compound 99-1], the IC50 was less than 1000 nM.

As for `CC1(C)N(c2ccc(Cl)cc2)C(=O)N(c2ccc(Cl)cc2)C1(O)c1cc(C#N)cc(C#N)c1` (stereo not drawn) [Example 188, 5-(1,3-bis(4-chlorophenyl)-4-hydroxy-5,5-dimethyl-2-oxoimidazolidin-4-yl)isophthalonitrile], the IC50 was less than 1000 nM.

Turning to `COc1cccc([C@]2(C)C(O)N(c3ccc(Br)cc3)C(=O)N2c2ccc(Br)cc2)c1` (single isomer, unassigned) [Compound 126-2], the IC50 was less than 1000 nM.

Consider `CC1(C)N(c2ccc(Br)cc2)C(=O)N(c2ccc(Br)cc2)C1(O)c1ccccc1` (stereo not drawn) [Compound 120, 1,3-bis(4-bromophenyl)-4-hydroxy-5,5-dimethyl-4-phenylimidazolidin-2-one], for which the IC50 was less than 1000 nM.

Consider `CC#Cc1cccc(C2(O)[C@H](C)N(c3ccc(Cl)cc3)C(=O)N2c2ccc(Cl)cc2)c1` (stereo partly drawn) [Compound 103-1, (5S)-1,3-bis(4-chlorophenyl)-4-hydroxy-5-methyl-4-(3-(prop-1-yn-1-yl)phenyl)imidazolidin-2-one], for which the IC50 is less than 1000 nM.

For the molecule `CCCCC1(O)C(=O)N(c2ccc(Br)cc2)C(=O)N1c1ccc(Br)cc1` (stereo not drawn) [Compound 152, 1,3-bis(4-bromophenyl)-5-butyl-5-hydroxyimidazolidine-2,4-dione], the IC50 fell in the range of 50000 to 100000 nM.

For `CC1(c2cccc(Cl)c2)C(O)N(c2ccc(Cl)cc2)C(=O)N1c1ccc(Cl)cc1` (stereo not drawn) [Compound 149, 4-(3-chlorophenyl)-1,3-bis(4-chlorophenyl)-5-hydroxy-4-methylimidazolidin-2-one], the IC50 was less than 1000 nM.

For `CCC[C@H]1N(c2ccc(Br)cc2)C(=O)N(c2ccc(Br)cc2)C1(O)c1cccc(Cl)c1` (stereo partly drawn) [Compound 119-2, (5R)-1,3-bis(4-bromophenyl)-4-(3-chlorophenyl)-4-hydroxy-5-propylimidazolidin-2-one], the 50% inhibitory concentration (IC50) was less than 1000 nM.

Take `Cc1cccc(C2(C)C(O)N(c3ccc(Cl)cc3)C(=O)N2c2ccc(Cl)cc2)c1` (stereo not drawn) [Example 222, 1,3-bis(4-chlorophenyl)-5-hydroxy-4-methyl-4-(m-tolyl)imidazolidin-2-one]: the IC50 is less than 1000 nM.

Turning to `CCCC1N(c2ccc(Br)cc2)C(=O)N(c2ccc(Br)cc2)C1(O)c1cccc(Cl)c1` (stereo not drawn) [Compound 119, 1,3-bis(4-bromophenyl)-4-(3-chlorophenyl)-4-hydroxy-5-propylimidazolidin-2-one], the IC50 is less than 1000 nM.

For the molecule `CCC[C@@H]1N(c2ccc(Br)cc2)C(=O)N(c2ccc(Br)cc2)C1(O)c1cccc(Cl)c1` (stereo partly drawn) [Compound 119-1, (5S)-1,3-bis(4-bromophenyl)-4-(3-chlorophenyl)-4-hydroxy-5-propylimidazolidin-2-one], the IC50 is less than 1000 nM.

Turning to `CCC[C@]1(C)N(c2ccc(Cl)cc2)C(=O)N(c2ccc(Cl)cc2)C1(O)c1cccc(OC(F)(F)F)c1` (single isomer, unassigned) [Example 170-2], the IC50 is less than 1000 nM.

For the molecule `COC[C@H]1N(c2ccc(Cl)cc2)C(=O)N(c2ccc(Cl)cc2)C1(O)c1cccc(OC(F)F)c1` (stereo partly drawn) [Compound 238-2, (5R)-1,3-bis(4-chlorophenyl)-4-(3-(difluoromethoxy)phenyl)-4-hydroxy-5-(methoxymethyl)imidazolidin-2-one], the IC50 was less than 1000 nM.

Turning to `COc1cccc(C2(O)C(=O)N(c3ccc(Br)cc3)C(=O)N2c2ccc(Br)cc2)c1` (stereo not drawn) [Example 179, 1,3-bis(4-bromophenyl)-5-hydroxy-5-(3-methoxyphenyl)imidazolidine-2,4-dione], the IC50 was in the range of 10000 to 50000 nM.

Consider `O=C1N(c2ccc(Cl)cc2)[C@H](c2ccccc2)[C@](O)(CO)N1c1ccc(Cl)cc1` [Example 218-1, (4S,5R)-1,3-bis(4-chlorophenyl)-4-hydroxy-4-(hydroxymethyl)-5-phenylimidazolidin-2-one], for which the half-maximal inhibitory concentration (IC50) was in the range of 10000 to 50000 nM.

For `CCc1cccc(C2(O)C(C)N(c3ccc(Cl)cc3)C(=O)N2c2ccc(Cl)cc2)c1` (stereo not drawn) [Compound 69, 1,3-bis(4-chlorophenyl)-4-(3-ethylphenyl)-4-hydroxy-5-methylimidazolidin-2-one], the 50% inhibitory concentration (IC50) was less than 1000 nM.

On to `Cc1c(-c2cccc(C(C)O)c2)n(-c2ccc(Cl)cc2)c(=O)n1-c1ccc(Cl)cc1` (stereo not drawn) [Example 37, 1,3-bis(4-chlorophenyl)-4-(3-(1-hydroxyethyl)phenyl)-5-methyl-1,3-dihydro-2H-imidazol-2-one], for which the IC50 was 1000 to 10000 nM.

Take `C[C@H]1N(c2ccc(C#N)cc2)C(=O)N(c2ccc(C#N)cc2)C1(O)c1cccc(OC(F)(F)F)c1` (stereo partly drawn) [Example 180-2, 4,4′-((5R)-4-hydroxy-5-methyl-2-oxo-4-(3-(trifluoromethoxy)phenyl)imidazolidine-1,3-diyl)dibenzonitrile]: the IC50 is less than 1000 nM.

Regarding `C[C@@H]1N(c2ccc(Br)cc2)C(=O)N(c2ccc(Br)cc2)C1(O)c1cccc(C(F)(F)F)c1` (stereo partly drawn) [Compound 74-1, (5S)-1,3-bis(4-bromophenyl)-4-hydroxy-5-methyl-4-(3-(trifluoromethyl)phenyl)imidazolidin-2-one], the IC50 is less than 1000 nM.
